The values that follow come from US20090041806A1, “USE OF PRODRUGS OF GABA ANALOGS, ANTISPASTICITY AGENTS, AND PRODRUGS OF GABA B RECEPTOR AGONISTS FOR TREATING SPASTICITY” (XenoPort, Inc., priority 2007, published 2009).

For series [1] the following is noted: oral baclofen; cited from earlier work.
The conditions of series [2]: oral; 2 mg t.i.d. R-baclofen equivalent to 10 mg t.i.d. racemic baclofen; cited from earlier work.
The nature of series [3]: Randomized, crossover, fed/fasted single-dose pharmacokinetic study of oral sustained release tablets of compound (7) in healthy adult subjects. To be noted: for AUC of compound (7) in blood as percent of the corresponding AUC of gabapentin in blood / maximum intact prodrug concentration as percent of the corresponding peak gabapentin concentration: oral tablets. The protocol: A randomized, crossover, fed/fasted single-dose study of the safety, tolerability, and pharmacokinetics of oral administration of 1-{[α-isobutanoyloxyethoxy)carbonyl]aminomethyl}-1-cyclohexane acetic acid (7) in healthy adult subjects was conducted. The oral sustained release dosage form of Example 4 was used in this study. The study was designed to evaluate the performance of this formulation in humans in comparison with the commercial gabapentin capsule formulation (Neurontin®, Pfizer). Twelve healthy adult volunteers (7 males and 5 females) participated in the study. Mean body weight was 75.6 kg. All subjects received two different treatments in a random order with a one-week washout between treatments. The two treatments were: a single oral dose of Example 4 tablets (2×600 mg) after an overnight fast; and a single oral dose of Example 4 tablets (2×600 mg) after a high fat breakfast.
Blood and plasma samples were collected from all subjects prior to dosing, and at 0.5, 1, 1.5, 2, 3, 4, 6, 8, 12, 18, 24, and 36 hours after dosing. Urine samples were collected from all subjects prior to dosing, and complete urine output was obtained at the 0-4 h, 4-8 h, 8-12 h, 12-18 h, 18-24 h, and 24-36 h intervals after dosing. Blood samples were quenched immediately with methanol and stored frozen at […] Sample aliquots were prepared for analysis of gabapentin and compound (7) using sensitive and specific LC/MS/MS methods.

Series [4] is described as follows: Uptake of gabapentin following intracolonic administration of gabapentin or gabapentin prodrugs in rats. Type of series: in vivo. Conditions: rat, dose equivalent to 25 mg gabapentin per kg. The protocol: Sustained release oral dosage forms, which release drug slowly over periods of 6-24 hours, generally release a significant proportion of the dose within the colon. […] This experiment was conducted to assess the suitability of gabapentin prodrugs for use in oral sustained release dosage forms.
Rats were obtained commercially and were pre-cannulated in the both the ascending colon and the jugular vein. Animals were conscious at the time of the experiment. All animals were fasted overnight and until 4 hours post-dosing. […]
were administered as a solution (in water or PEG 400) directly into the colon via the cannula at a dose equivalent to 25 mg of gabapentin per kg. […] Blood samples were analyzed as described below. […]
were used. […] The peaks were integrated using Analyst 1.1 quantitation software.

The conditions of series [5]: cited from earlier work.
A short description of series [6]: Uptake of R-baclofen following oral administration of R-baclofen prodrugs to cynomolgus monkeys. Conditions: cynomolgus monkey, in vivo. The protocol: (5 mg baclofen-eq/kg) were administered by oral gavage to groups of four male cynomolgus monkeys as either an aqueous solution or suspension in 0.5% methylcellulose/0.1% Tween-80 respectively. […] The oral bioavailability of both prodrugs: • (sodium 4-{[(1S)-isobutanoyloxyisobutoxy]carbonylamino}-(3R)-(4-chlorophenyl)-butanoate; and • 4-{[(1S)-isobutanoyloxyisobutoxy]carbonylamino}-(3R)-(4-chlorophenyl)-butanoic acid;

Turning to `NCC(CC(=O)O)c1ccc(Cl)cc1` (racemic) [Baclofen, (±)-4-amino-3-(4-chlorophenyl)butanoic acid], in series [1], the elimination half-life is 3 to 4 h.
As to `NC[C@H](CC(=O)O)c1ccc(Cl)cc1` [R-baclofen, R-(−)-baclofen], the “potency of orally administered R-baclofen relative to orally administered racemic baclofen” value in series [2] is given as “about 5 fold”.
On to `CC(OC(=O)NCC1(CC(=O)O)CCCCC1)OC(=O)C(C)C` (stereo not drawn) [compound (7), 1-{[(α-isobutanoyloxyethoxy)carbonyl]aminomethyl}-1-cyclohexane acetic acid], for which the “maximum concentration of intact compound (7) in blood” value in series [3] (human, in vivo, po) was 0.040 µg/mL. In addition, in series [3] (fasted subjects), the “AUC of compound (7) in blood as percent of the corresponding AUC of gabapentin in blood” value stood at 0.3% and the “maximum intact prodrug concentration as percent of the corresponding peak gabapentin concentration” value is on record as “approximately 1.0%”. For the same compound, in series [3] (fed subjects), the “AUC of compound (7) in blood as percent of the corresponding AUC of gabapentin in blood” value is “less than 0.1%” and the “maximum intact prodrug concentration as percent of the corresponding peak gabapentin concentration” value is on record as “approximately 0.3%”. Also, in series [4], the “area under the gabapentin plasma concentration vs. time curve (AUC) relative to colonic administration of gabapentin itself” value is on record as “greater than 10 fold” and the “maximum plasma concentration of gabapentin (Cmax) relative to colonic administration of gabapentin itself” value was “greater than 10 fold”.
With `NCC1(CC(=O)O)CCCCC1` [gabapentin], in series [5], the “typical Tmax of immediate release gabapentin” value is 2 to 4 h.
Take `CC(C)C(=O)O[C@@H](OC(=O)NC[C@H](CC(=O)[O-])c1ccc(Cl)cc1)C(C)C.[Na+]` [sodium 4-{[(1S)-isobutanoyloxyisobutoxy]carbonylamino}-(3R)-(4-chlorophenyl)-butanoate]: in series [6], the “oral bioavailability as R-baclofen” value is given as “greater than 80%”.
